Legend:
[1] = tested on: Plasmodium berghei; assay: Antimalarial activity against luciferase expressing liver stage Plasmodium berghei ANKA infected in human Huh-7 cells assessed as reduction in parasite load measured after 44 hrs post infection by Bright-glo reagent based luciferase reporter assay; type: functional, organism-based; details: Huh-7, 44 h
[2] = tested on: Plasmodium berghei; assay: Antimalarial activity against luciferase expressing liver stage Plasmodium berghei ANKA infected in human Huh-7 cells assessed as reduction in parasite load at 10 uM measured after 44 hrs post infection by Bright-glo reagent based luciferase reporter assay relative to control; type: functional; parameters: scale not given: the % may be the effect or the level left
[3] = tested on: Huh-7; assay: Cytotoxicity against human Huh-7 cells infected with luciferase expressing liver stage Plasmodium berghei ANKA assessed as reduction in cell viability at high doses measured after 44 hrs post infection by Cell-TiterFluor viability assay; type: toxicity, cell-based; details: huh-7, 44 h
[4] = tested on: Huh-7; assay: Cytotoxicity against human Huh-7 cells infected with luciferase expressing liver stage Plasmodium berghei ANKA assessed as reduction in cell viability upto 100 uM measured after 44 hrs post infection by Cell-TiterFluor viability assay; type: toxicity, cell-based; details: huh-7, 44 h
[5] = molecular target: T1, HSP90 (Plasmodium falciparum 3D7, UniProt Q8IL32); assay: Inhibition of recombinant his-tagged Plasmodium falciparum Hsp90 GHKL domain expressed in Escherichia coli BL21 (DE3) cells by bis-ANS binding assay
T1 sequence (Q8IL32 whole entry): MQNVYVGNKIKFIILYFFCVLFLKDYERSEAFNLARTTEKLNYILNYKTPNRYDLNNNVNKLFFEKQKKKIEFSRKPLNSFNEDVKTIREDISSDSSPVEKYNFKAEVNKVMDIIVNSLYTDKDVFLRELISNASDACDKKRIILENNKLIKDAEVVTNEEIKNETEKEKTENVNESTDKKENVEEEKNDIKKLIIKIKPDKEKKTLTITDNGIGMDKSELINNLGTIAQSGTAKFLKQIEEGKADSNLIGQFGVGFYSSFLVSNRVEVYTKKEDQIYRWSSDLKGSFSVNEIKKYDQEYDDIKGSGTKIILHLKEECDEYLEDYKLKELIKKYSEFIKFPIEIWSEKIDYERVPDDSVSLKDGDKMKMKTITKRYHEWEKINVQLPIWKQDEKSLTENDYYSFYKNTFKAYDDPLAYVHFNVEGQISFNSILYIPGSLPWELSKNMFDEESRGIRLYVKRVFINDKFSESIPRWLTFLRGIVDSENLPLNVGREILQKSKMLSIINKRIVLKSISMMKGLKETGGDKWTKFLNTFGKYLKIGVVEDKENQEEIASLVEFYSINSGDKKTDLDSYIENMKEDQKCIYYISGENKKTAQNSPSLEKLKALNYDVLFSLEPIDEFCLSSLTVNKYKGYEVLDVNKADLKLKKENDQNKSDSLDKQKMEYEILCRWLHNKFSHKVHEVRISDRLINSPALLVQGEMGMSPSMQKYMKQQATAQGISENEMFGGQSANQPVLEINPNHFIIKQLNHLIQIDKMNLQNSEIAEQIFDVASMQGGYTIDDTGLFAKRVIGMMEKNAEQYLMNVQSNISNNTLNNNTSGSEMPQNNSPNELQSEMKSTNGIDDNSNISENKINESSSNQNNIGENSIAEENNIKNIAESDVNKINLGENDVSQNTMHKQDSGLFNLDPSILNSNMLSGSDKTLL

[6] = tested on: Huh-7; assay: Cytotoxicity against human Huh-7 cells infected with luciferase expressing liver stage Plasmodium berghei ANKA assessed as reduction in cell viability at 10 uM measured after 44 hrs post infection by Cell-TiterFluor viability assay relative to control; type: toxicity, cell-based; details: huh-7, 44 h

SMILES | Activity [2] [%] | also measured
FC(F)(F)c1cccc(-c2nccc3c2[nH]c2ccc(Cl)cc23)c1 | 15 | EC50 [1]: 5.2 µM; Activity [3]: Toxic
O=C1C(O)=C([C@H]2CC[C@H](c3ccc(Cl)cc3)CC2)C(=O)c2ccccc21 [ATOVAQUONE] | – | EC50 [1]: 0.01 µM
COc1ccc2c(c1)[nH]c1c(C3CC3)nccc12 | >50 | –
COc1ccc(-c2nccc3c2[nH]c2ccccc23)cc1 | >50 | –
COc1ccc2[nH]c3c(-c4ccccc4)nccc3c2c1 | >50 | –
c1ccc2c(c1)[nH]c1cnccc12 [NORHARMANE] | >50 | –
FC(F)(F)c1ccc(-c2nccc3c2[nH]c2ccccc23)cc1 | 5.8 | EC50 [1]: 5.2 µM; Activity [4]: Non-Toxic
Clc1cccc(-c2nccc3c2[nH]c2ccc(Cl)cc23)c1 | >50 | –
N#Cc1ccc(-c2nccc3c2[nH]c2ccccc23)cc1 | >50 | –
Cc1cccc(-c2nccc3c2[nH]c2ccc(Cl)cc23)c1 | 41 | –
c1cncc(-c2nccc3c2[nH]c2ccccc23)c1 | >50 | –
CC1NCCc2c1[nH]c1ccc(Cl)cc21 (stereo not drawn) | – | IC50 [5]: 12.2 µM
c1ccc2c(c1)[nH]c1c(C3CC3)nccc12 | >50 | –
Clc1ccc2[nH]c3c(-c4ccccc4)nccc3c2c1 | >50 | –
Clc1cccc(-c2nccc3c2[nH]c2ccccc23)c1 | >50 | –
COc1cccc(-c2nccc3c2[nH]c2ccc(Cl)cc23)c1 | >50 | Activity [6]: 78%
c1ccc2c(c1)[nH]c1c(-c3ccsc3)nccc12 | >50 | Activity [6]: 78%

— ChEMBL document CHEMBL5365414, “Synthesis and activity of β-carboline antimalarials targeting the Plasmodium falciparum heat shock 90 protein” (Bioorg Med Chem Lett, 2023)
